# According to patent publication US10745384B2, “Indazole derivatives as αv integrin antagonists” (BRISTOL-MYERS SQUIBB COMPANY, priority 2016, dated 2020):
# Counter-ions that a name gives are not always drawn.
# Target: T1, human αVβ6 (Homo sapiens, UniProt P06756+P18564)
# T1 construct: purchased R & D systems 3817-AV
# Assay: human αVβ6 HTRF binding assay
# Settings: recombinant human αVβ6 integrin, FITC-conjugated fibronectin
# Method in brief: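 HTRF binding in 20 mM Tris pH 7.4 with 1 mM MgCl2, 1 mM MnCl2, 0.01% Tween 20 and 0.01% BSA. For αVβ6, biotinylated integrin (1.25 nM) and FITC-fibronectin (5 nM) were incubated 1 h at RT, then streptavidin-terbium (0.625 nM) was added overnight in the dark. An SPA-based fibronectin binding format was an alternative.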
# T1 sequence (P06756 31-992 limits assumed): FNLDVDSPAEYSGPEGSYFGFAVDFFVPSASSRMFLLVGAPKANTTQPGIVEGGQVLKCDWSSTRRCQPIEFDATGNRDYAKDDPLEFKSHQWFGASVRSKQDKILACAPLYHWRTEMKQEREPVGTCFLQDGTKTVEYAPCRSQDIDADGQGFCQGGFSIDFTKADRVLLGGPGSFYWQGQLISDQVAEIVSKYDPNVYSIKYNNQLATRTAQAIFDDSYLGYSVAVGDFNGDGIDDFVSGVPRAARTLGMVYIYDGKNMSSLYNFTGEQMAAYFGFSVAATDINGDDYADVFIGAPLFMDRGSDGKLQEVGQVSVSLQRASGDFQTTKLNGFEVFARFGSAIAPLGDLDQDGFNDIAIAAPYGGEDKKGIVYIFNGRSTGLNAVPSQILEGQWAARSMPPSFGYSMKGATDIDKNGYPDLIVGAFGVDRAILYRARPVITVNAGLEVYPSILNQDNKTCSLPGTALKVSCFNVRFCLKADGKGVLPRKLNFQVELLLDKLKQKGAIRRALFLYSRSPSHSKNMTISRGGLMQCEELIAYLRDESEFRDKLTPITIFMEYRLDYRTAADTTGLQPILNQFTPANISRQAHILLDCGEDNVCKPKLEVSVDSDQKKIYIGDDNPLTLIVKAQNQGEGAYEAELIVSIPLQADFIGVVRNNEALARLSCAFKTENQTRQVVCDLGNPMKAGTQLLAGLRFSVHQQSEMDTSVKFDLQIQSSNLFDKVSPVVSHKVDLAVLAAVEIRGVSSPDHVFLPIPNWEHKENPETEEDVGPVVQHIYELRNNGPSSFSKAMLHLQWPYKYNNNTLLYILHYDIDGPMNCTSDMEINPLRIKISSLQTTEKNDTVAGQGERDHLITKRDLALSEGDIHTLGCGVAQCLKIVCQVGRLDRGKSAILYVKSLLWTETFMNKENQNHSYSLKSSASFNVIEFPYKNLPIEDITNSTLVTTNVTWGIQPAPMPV
# T1 sequence (P18564 22-707 limits assumed): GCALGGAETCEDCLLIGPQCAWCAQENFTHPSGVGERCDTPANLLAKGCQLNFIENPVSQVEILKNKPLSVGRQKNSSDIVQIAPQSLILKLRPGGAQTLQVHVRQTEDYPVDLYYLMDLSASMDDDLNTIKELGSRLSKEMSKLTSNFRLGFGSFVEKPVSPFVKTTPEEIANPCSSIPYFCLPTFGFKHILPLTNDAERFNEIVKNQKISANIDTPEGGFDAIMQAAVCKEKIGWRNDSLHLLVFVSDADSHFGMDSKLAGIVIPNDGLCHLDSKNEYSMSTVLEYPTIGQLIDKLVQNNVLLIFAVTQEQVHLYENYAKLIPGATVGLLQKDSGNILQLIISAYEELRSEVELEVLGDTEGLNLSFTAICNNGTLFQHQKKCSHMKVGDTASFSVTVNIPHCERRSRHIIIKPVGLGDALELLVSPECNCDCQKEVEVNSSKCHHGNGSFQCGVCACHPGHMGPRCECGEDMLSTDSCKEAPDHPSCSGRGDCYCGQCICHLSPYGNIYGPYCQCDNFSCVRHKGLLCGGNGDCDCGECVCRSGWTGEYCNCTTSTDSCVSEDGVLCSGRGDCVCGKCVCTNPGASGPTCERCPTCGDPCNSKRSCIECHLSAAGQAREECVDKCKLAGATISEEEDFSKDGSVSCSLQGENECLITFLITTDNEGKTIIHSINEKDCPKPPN
row,Structure (SMILES),IC50 [nM]
1,"CCOc1ncc([C@@H](CC(=O)O)n2ncc3cc(OCCc4ccc5c(n4)NCCC5)ccc32)cn1 [Example 108, (R)-3-(2-Ethoxypyrimidin-5-yl)-3-(5-(2-(5,6,7,8-tetrahydro-1,8-naphthyridin-2-yl)ethoxy)-1H-indazol-1-yl) propanoic acid, TFA]",390
2,"O=C(O)CC(c1ccc2ncsc2c1)n1ncc2cc(OCCc3ccc4c(n3)NCCC4)ccc21 (centres unmarked) [Example 110, 3-(Benzo[d]thiazol-6-yl)-3-(5-(2-(5,6,7,8-tetrahydro-1,8-naphthyridin-2-yl)ethoxy)-1H-indazol-1-yl)propanoic acid, TFA]",19
3,"O=C(O)CC(c1cnc(N2CCOCC2)nc1)n1ncc2cc(OCCc3ccc4c(n3)NCCC4)ccc21 (centres unmarked) [Example 111, 3-(2-Morpholinopyrimidin-5-yl)-3-(5-(2-(5,6,7,8-tetrahydro-1,8-naphthyridin-2-yl)ethoxy)-1H-indazol-1-yl)propanoic acid, TFA]",24
4,"COc1ccc(C(CC(=O)O)n2ncc3cc(OCCc4ccc5c(n4)NCCC5)ccc32)nn1 (centres unmarked) [Example 114, 3-(6-Methoxypyridazin-3-yl)-3-(5-(2-(5,6,7,8-tetrahydro-1,8-naphthyridin-2-yl)ethoxy)-1H-indazol-1-yl)propanoic acid, TFA]",2.6
5,"O=C(O)CC(c1ccc2nncn2c1)n1ncc2cc(OCCc3ccc4c(n3)NCCC4)ccc21 (centres unmarked) [Example 115, 3-([1,2,4]Triazolo[4,3-a]pyridin-6-yl)-3-(5-(2-(5,6,7,8-tetrahydro-1,8-naphthyridin-2-yl)ethoxy)-1H-indazol-1-yl)propanoic acid]",60
6,"O=C(O)CC(c1ccc2c(n1)NCCC2)n1ncc2cc(OCCc3ccc4c(n3)NCCC4)ccc21 (centres unmarked) [Example 116, 3-(5,6,7,8-Tetrahydro-1,8-naphthyridin-2-yl)-3-(5-(2-(5,6,7,8-tetrahydro-1,8-naphthyridin-2-yl)ethoxy)-1H-indazol-1-yl)propanoic acid, 2 TFA]",5.9
7,"CCN1CCn2c(C(CC(=O)O)n3ncc4cc(OCCc5ccc6c(n5)NCCC6)ccc43)cnc2C1 (centres unmarked) [Example 122, 3-(7-Ethyl-5,6,7,8-tetrahydroimidazo[1,2-a]pyrazin-3-yl)-3-(5-(2-(5,6,7,8-tetrahydro-1,8-naphthyridin-2-yl)ethoxy)-1H-indazol-1-yl)propanoic acid]",14
8,"CC(C)(C)OC(=O)NCc1cncc(C(CC(=O)O)n2ncc3cc(OCCc4ccc5c(n4)NCCC5)ccc32)c1 (centres unmarked) [Example 123, 3-(5-(((tert-Butoxycarbonyl)amino)methyl)pyridin-3-yl)-3-(5-(2-(5,6,7,8-tetrahydro-1,8-naphthyridin-2-yl)ethoxy)-1H-indazol-1-yl)propanoic acid]",5.5
9,"O=C(O)CC(c1cncc(N2CCOCC2)c1)n1ncc2cc(OCCc3ccc4c(n3)NCCC4)ccc21 (centres unmarked) [Example 124, 3-(5-Morpholinopyridin-3-yl)-3-(5-(2-(5,6,7,8-tetrahydro-1,8-naphthyridin-2-yl)ethoxy)-1H-indazol-1-yl)propanoic acid, 3 TFA]",1.9
10,"CS(=O)(=O)c1cncc(C(CC(=O)O)n2ncc3cc(OCCc4ccc5c(n4)NCCC5)ccc32)c1 (centres unmarked) [Example 125, 3-(5-(Methylsulfonyl)pyridin-3-yl)-3-(5-(2-(5,6,7,8-tetrahydro-1,8-naphthyridin-2-yl)ethoxy)-1H-indazol-1-yl)propanoic acid, 2 TFA]",4.7
11,"Cn1cnc2cc(C(CC(=O)O)n3ncc4cc(OCCc5ccc6c(n5)NCCC6)ccc43)cnc21 (centres unmarked) [Example 126, 3-(3-Methyl-3H-imidazo[4,5-b]pyridin-6-yl)-3-(5-(2-(5,6,7,8-tetrahydro-1,8-naphthyridin-2-yl)ethoxy)-1H-indazol-1-yl)propanoic acid, 2 TFA]",21
12,"O=C(O)CC(c1cncc(N2CCCC2)c1)n1ncc2cc(OCCc3ccc4c(n3)NCCC4)ccc21 (centres unmarked) [Example 127, 3-(5-(Pyrrolidin-1-yl)pyridin-3-yl)-3-(5-(2-(5,6,7,8-tetrahydro-1,8-naphthyridin-2-yl)ethoxy)-1H-indazol-1-yl)propanoic acid, 3 TFA]",6.2
13,"O=C(O)C[C@H](c1cnc2nccnc2c1)n1ncc2cc(OCCc3ccc4c(n3)NCCC4)ccc21 [Example 128, (R)-3-(Pyrido[2,3-b]pyrazin-7-yl)-3-(5-(2-(5,6,7,8-tetrahydro-1,8-naphthyridin-2-yl)ethoxy)-1H-indazol-1-yl)propanoic acid]",25
14,"O=C(O)C[C@@H](c1cnc2nccnc2c1)n1ncc2cc(OCCc3ccc4c(n3)NCCC4)ccc21 [Example 129, (S)-3-(Pyrido[2,3-b]pyrazin-7-yl)-3-(5-(2-(5,6,7,8-tetrahydro-1,8-naphthyridin-2-yl)ethoxy)-1H-indazol-1-yl)propanoic acid]",480
15,"O=C(O)CC(c1ccn2cnnc2c1)n1ncc2cc(OCCc3ccc4c(n3)NCCC4)ccc21 (centres unmarked) [Example 130, 3-([1,2,4]Triazolo[4,3-a]pyridin-7-yl)-3-(5-(2-(5,6,7,8-tetrahydro-1,8-naphthyridin-2-yl)ethoxy)-1H-indazol-1-yl)propanoic acid]",57
16,"NCc1cncc(C(CC(=O)O)n2ncc3cc(OCCc4ccc5c(n4)NCCC5)ccc32)c1 (centres unmarked) [Example 131, 3-(5-(Aminomethyl)pyridin-3-yl)-3-(5-(2-(5,6,7,8-tetrahydro-1,8-naphthyridin-2-yl)ethoxy)-1H-indazol-1-yl)propanoic acid]",30
17,"O=C(O)CC(c1cnc2c(c1)OCO2)n1ncc2cc(OCCc3ccc4c(n3)NCCC4)ccc21 (centres unmarked) [Example 132, 3-([1,3]Dioxolo[4,5-b]pyridin-6-yl)-3-(5-(2-(5,6,7,8-tetrahydro-1,8-naphthyridin-2-yl)ethoxy)-1H-indazol-1-yl)propanoic acid]",22
18,"COc1ncc(C(CC(=O)O)n2ncc3cc(OCCc4ccc5c(n4)NCCC5)ccc32)cc1C1OCCO1 (centres unmarked) [Example 133, 3-(5-(1,3-Dioxolan-2-yl)-6-methoxypyridin-3-yl)-3-(5-(2-(5,6,7,8-tetrahydro-1,8-naphthyridin-2-yl)ethoxy)-1H-indazol-1-yl)propanoic acid]",400
19,"O=C(O)CC(c1cccc(-n2cccn2)n1)n1ncc2cc(OCCc3ccc4c(n3)NCCC4)ccc21 (centres unmarked) [Example 134, 3-(6-(1H-Pyrazol-1-yl)pyridin-2-yl)-3-(5-(2-(5,6,7,8-tetrahydro-1,8-naphthyridin-2-yl)ethoxy)-1H-indazol-1-yl)propanoic acid]",17
20,"O=C(O)CC(c1cnn(-c2ccncc2)c1)n1ncc2cc(OCCc3ccc4c(n3)NCCC4)ccc21 (centres unmarked) [Example 135, 3-(1-(Pyridin-4-yl)-1H-pyrazol-4-yl)-3-(5-(2-(5,6,7,8-tetrahydro-1,8-naphthyridin-2-yl)ethoxy)-1H-indazol-1-yl)propanoic acid]",3.8
21,"Cn1cc2ncc(C(CC(=O)O)n3ncc4cc(OCCc5ccc6c(n5)NCCC6)ccc43)cc2n1 (centres unmarked) [Example 136, 3-(2-Methyl-2H-pyrazolo[4,3-b]pyridin-6-yl)-3-(5-(2-(5,6,7,8-tetrahydro-1,8-naphthyridin-2-yl)ethoxy)-1H-indazol-1-yl)propanoic acid]",41
22,"Cn1ncc2ncc(C(CC(=O)O)n3ncc4cc(OCCc5ccc6c(n5)NCCC6)ccc43)cc21 (centres unmarked) [Example 137, 3-(1-Methyl-1H-pyrazolo[4,3-b]pyridin-6-yl)-3-(5-(2-(5,6,7,8-tetrahydro-1,8-naphthyridin-2-yl)ethoxy)-1H-indazol-1-yl)propanoic acid]",7
23,"O=C(O)C[C@H](c1cncc(C2OCCO2)c1)n1ncc2cc(OCCc3ccc4c(n3)NCCC4)ccc21 [Example 138, (R)-3-(5-(1,3-dioxolan-2-yl)pyridin-3-yl)-3-(5-(2-(5,6,7,8-tetrahydro-1,8-naphthyridin-2-yl)ethoxy)-1H-indazol-1-yl)propanoic acid]",43
24,"O=C(O)C[C@@H](c1cncc(C2OCCO2)c1)n1ncc2cc(OCCc3ccc4c(n3)NCCC4)ccc21 [Example 139, (S)-3-(5-(1,3-dioxolan-2-yl)pyridin-3-yl)-3-(5-(2-(5,6,7,8-tetrahydro-1,8-naphthyridin-2-yl)ethoxy)-1H-indazol-1-yl)propanoic acid]",4.7
25,"Cn1cnc2ncc(C(CC(=O)O)n3ncc4cc(OCCc5ccc6c(n5)NCCC6)ccc43)cc21 (centres unmarked) [Example 140, 3-(1-methyl-1H-imidazo[4,5-b]pyridin-6-yl)-3-(5-(2-(5,6,7,8-tetrahydro-1,8-naphthyridin-2-yl)ethoxy)-1H-indazol-1-yl)propanoic acid]",5.7
26,"O=C(O)CC(c1cncc(-c2ccn[nH]2)c1)n1ncc2cc(OCCc3ccc4c(n3)NCCC4)ccc21 (centres unmarked) [Example 141, 3-(5-(1H-pyrazol-5-yl)pyridin-3-yl)-3-(5-(2-(5,6,7,8-tetrahydro-1,8-naphthyridin-2-yl)ethoxy)-1H-indazol-1-yl)propanoic acid]",8.2
27,"O=C(O)CC(c1cncc(N2CCOCC2)n1)n1ncc2cc(OCCc3ccc4c(n3)NCCC4)ccc21 (centres unmarked) [Example 142, 3-(6-morpholinopyrazin-2-yl)-3-(5-(2-(5,6,7,8-tetrahydro-1,8-naphthyridin-2-yl)ethoxy)-1H-indazol-1-yl)propanoic acid]",36
28,"Cn1cc(-c2cncc(C(CC(=O)O)n3ncc4cc(OCCc5ccc6c(n5)NCCC6)ccc43)c2)cn1 (centres unmarked) [Example 143, 3-(5-(1-methyl-1H-pyrazol-4-yl)pyridin-3-yl)-3-(5-(2-(5,6,7,8-tetrahydro-1,8-naphthyridin-2-yl)ethoxy)-1H-indazol-1-yl)propanoic acid]",9.8
29,"CC(C)(O)c1cncc(C(CC(=O)O)n2ncc3cc(OCCc4ccc5c(n4)NCCC5)ccc32)c1 (centres unmarked) [Example 144, 3-(5-(2-hydroxypropan-2-yl)pyridin-3-yl)-3-(5-(2-(5,6,7,8-tetrahydro-1,8-naphthyridin-2-yl)ethoxy)-1H-indazol-1-yl)propanoic acid]",5
